Assay results: patent publication US10124035B2, “DISC-1 pathway activators in the control of neurogenesis” (Massachusetts Institute of Technology, priority 2008, dated 2018)
Entries after “also recorded” stand apart in the source; their conditions may differ.

Experiments:
[1] = test system: DISC1 knockdown AHP cells; assay: BrdU incorporation in DISC1 knockdown progenitor cells; format: cell-based; conditions: SB-216763 5 μM for 16 hours, 10 μM BrdU for 2 hours
Method: Primary neural stem cells from E14 brains were infected with control or DISC1 shRNA lentiviruses. 48 hours after to transduction, cells were treated with vehicle or SB-216763 (5 μM) for 16 hours and then pulsed with 10 μM BrdU for 2 hours. Shown is percentage of GFP and BrdU double positive cells to total GFP positive cells (n=3, p<0.05). b. […] 1.5 μg of vector or WT-DISC1 was cotransfected with 0.5 μg control or DISC1 shRNA-2, 0.1 μg TCF reporter, and 10 ng pRL-TK vector into 293T cells. 48 hours after transfection, Wnt3a conditional medium with vehicle, SB-216763, or AR-A104418 was added for another 16 hours.
If DISC1 functions to inhibit GSK3β activity, the negative effects of DISC1 silencing on proliferation should be alleviated by GSK3β loss-of-function. We examined the consequence of treating DISC1 knockdown AHP cells with SB-216763, a specific chemical inhibitor of GSK3β. […] These experiments further support a role of DISC1 in controlling cell proliferation via modulation of GSK3β.

[2] = test system: AHPs; assay: Immunoblot of β-catenin and cyclin D1 in transduced AHPs; format: cell-based
Text: • Mice. Swiss Webster pregnant female mice were purchased from Taconic (Hudson, N.Y.). • Cell Culture. AHPs were kindly provided by Dr. Gage (Lie, D. C. et al. Wnt signaling to regulates adult hippocampal neurogenesis. Nature 437, 1370-5 (2005)) and cultured under conditions described previously (Palmer, T. D., Takahashi, J. & Gage, F. H. The adult rat hippocampus contains primordial neural stem cells. Mol Cell Neurosci 8, 389-404 (1997)). Primary neural progenitors were isolated from E14 mouse embryos and cultured as described previously (Sanada, K. & Tsai, L. H. G protein betagamma subunits and AGS3 control spindle orientation and asymmetric cell fate of cerebral cortical progenitors. Cell 122, 119-31 (2005)). N2a and 293T cells were cultured in DMEM medium containing 10% FBS, L-glutamine, and penicillin/streptomycin. Wnt3a expressing L cells and untransfected L cells were obtained from ATCC (Manassas, Va.). Wnt3a conditional medium was produced according to the ATCC protocol. To induce AHP differentiation, FGF2 was removed from the culture medium and 1 μM retinoic acid/1% FBS was added to the medium for 4 days. • Reagents. Recombinant Wnt3a protein was obtained from Chemicon (Rosemont, Ill.). FGF2 was obtained from PeproTech (Rocky Hill, N.J.). Recombinant GST-GSK3β was obtained from Active Motif (Carlsbad, Calif.). Recombinant GST-β-catenin and GST-axin were obtained from Millipore (Billerica, Mass.). The GSK313 inhibitor, SB-216763, AR-A104418 and His-GSK3β, were obtained from Sigma-Aldrich (Sigma-Aldrich, St. Louis, Mo.). L803-MTS was obtained from Calbiochem (San Diego, Calif.). GST-AKT1 was obtained from Cell Signaling (Beverly, Mass.). GST-CASK-1 (CASK fragment from 316-415aa), GST-CASK-2 (CASK fragment from 777-974aa), and GST-p25 proteins were kindly provided by Dr. B. A. Samuels. Mouse DISC1 peptidel (40-78aa: GYMRSTAGSG IGFLSPAVGMPHPSSAG LTGQQSQHSQS; SEQ ID NO: 1) and Mouse DISC1 peptide 2 (195-238aa, […] GERGEAEGCLPSREAE; SEQ ID NO: 2) were synthesized by Chi Scientific (Maynard, Mass.). • Antibodies. […]

[3] = test system: DISC1 shRNA infected mice; assay: Elevated plus-maze; format: in vivo, mouse; conditions: lentivirus in adult dentate gyrus
Method: Alterations in neurogenesis are implicated in the development of depression and other abnormal behaviors. To examine the behavioral consequences of disrupting the DICS1/GSK3β pathway, we silenced DISC1 expression in the adult dentate gyms and evaluated behavioral consequences. Four weeks after the injection of control or DISC1 shRNA-1 lentivirus, mice were treated with vehicle or SB-216763 (2 mg/kg i.p.) every other day for 10 days. […] DISC1 shRNA injected mice traveled a greater distance and spent more time moving in a novel open field than control mice (FIG. 17A). These behaviors were normalized by SB-216763 treatment. We further tested whether DISC1 loss-of-function had consequences on depression-like behavior in the forced swim test. […] Importantly, swimming velocity was unchanged. […] Thus, increased GSK3β activity caused by DISC1 loss-of-function is associated with schizophrenia- and depression-like behaviors.

Cn1cc(C2=C(c3ccc(Cl)cc3Cl)C(=O)NC2=O)c2ccccc21 [SB-216763]
cell proliferation by BrdU incorporation in DISC1 knockdown cells [1]: restored the cell proliferation impaired by DISC1 knockdown; also recorded: can rescue DISC-1 knockdown-induced proliferation defects

DISC1 shRNA-1: shRNA targeting rat and mouse DISC1, SEQ ID NO:4, in pLentiLox 3.7 vector (GGCAAACACTGTGAAGTGC)
reduction of Cyclin D1 levels [2]: 50%
β-catenin levels [2]: 35 % to control
anxiety in elevated plus-maze [3]: did not display increased anxiety
